# How the values were obtained:
# [1] = tested on: Mycobacterium tuberculosis; assay: Antitubercular activity against Mycobacterium tuberculosis H37Rv by microbroth dilution method; format: functional
# [2] = tested on: Bacillus anthracis; assay: Antibacterial activity against Bacillus anthracis Sterne 34F2 by microbroth dilution method; format: functional
# [3] = tested on: Enterococcus faecalis; assay: Antibacterial activity against Enterococcus faecalis ATCC 33186 by microbroth dilution method; format: functional
# [4] = tested on: Staphylococcus aureus; assay: Antibacterial activity against methicillin-sensitive Staphylococcus aureus ATCC 29213 by microbroth dilution method; format: functional
# [5] = tested on: Staphylococcus aureus; assay: Antibacterial activity against methicillin-resistant Staphylococcus aureus NRS70 by microbroth dilution method; format: functional
# [6] = tested on: Streptococcus pyogenes; assay: Antibacterial activity against Streptococcus pyogenes ATCC 700294 by microbroth dilution method; format: functional
# [7] = tested on: Streptococcus pneumoniae; assay: Antibacterial activity against Streptococcus pneumoniae R6 by microbroth dilution method; format: functional
# [8] = tested on: Bacillus subtilis; assay: Antibacterial activity against Bacillus subtilis ATCC 23857 by microbroth dilution method; format: functional
# [9] = tested on: Acinetobacter baumannii; assay: Antibacterial activity against Acinetobacter baumannii ATCC 19606 by microbroth dilution method; format: functional, ATCC 19606 = CIP 70.34 = JCM 6841
# [10] = tested on: Escherichia coli; assay: Antibacterial activity against Escherichia coli K-12 by microbroth dilution method; format: functional
# [11] = tested on: Escherichia coli; assay: Antibacterial activity against Escherichia coli harboring TolC deletion mutant by microbroth dilution method; format: functional
# [12] = tested on: Burkholderia cepacia; assay: Antibacterial activity against Burkholderia cepacia ATCC 25416 by microbroth dilution method; format: functional
# [13] = tested on: Klebsiella pneumoniae; assay: Antibacterial activity against Klebsiella pneumoniae ATCC 33495 by microbroth dilution method; format: functional
# [14] = tested on: Proteus mirabilis; assay: Antibacterial activity against Proteus mirabilis ATCC 25933 by microbroth dilution method; format: functional
# [15] = tested on: Proteus vulgaris; assay: Antibacterial activity against Proteus vulgaris ATCC 33420 by microbroth dilution method; format: functional
# [16] = tested on: Pseudomonas aeruginosa; assay: Antibacterial activity against Pseudomonas aeruginosa PAO1 by microbroth dilution method; format: functional
# [17] = Mycobacterium tuberculosis, H37Rv, read-out: MIC
# [18] = Bacillus anthracis, Sterne 34F2, read-out: MIC
# [19] = Enterococcus faecalis, ATCC 33186, read-out: MIC
# [20] = Staphylococcus aureus, ATCC 29213, read-out: MIC
# [21] = Staphylococcus aureus, NRS70, read-out: MIC
# [22] = Streptococcus pyogenes, ATCC 700294, read-out: MIC
# [23] = Streptococcus pneumoniae, R6, read-out: MIC
# [24] = Bacillus subtilis, ATCC 23857, read-out: MIC
# [25] = Acinetobacter baumannii, ATCC 19606 = CIP 70.34 = JCM 6841, read-out: MIC
# [26] = Escherichia coli, read-out: MIC
SMILES,"MIC [1, 17]","MIC [2, 18]","MIC [3, 19]","MIC [4, 20]","MIC [5, 21]","MIC [6, 22]","MIC [7, 23]","MIC [8, 24]","MIC [9, 25]",MIC [10],"MIC [11, 26]",MIC [12],MIC [13],MIC [14],MIC [15],MIC [16],MIC [11],other results
COc1ccc2cc1Oc1cc(ccc1OC)CCC(NCCc1ccc3c(c1)OCO3)CCCC2 (stereo not drawn),25 µg/mL,50 µg/mL,50 µg/mL,50 µg/mL,25 µg/mL,12.5 µg/mL,50 µg/mL,12.5 µg/mL,> 100 µg/mL,> 100 µg/mL,12.5 µg/mL,> 100 µg/mL,> 100 µg/mL,> 100 µg/mL,> 100 µg/mL,> 100 µg/mL,–,–
COc1ccc2cc1Oc1cc(ccc1OC)CCC(NCCN(C)C)CCCC2 (stereo not drawn),100 µg/mL,> 100 µg/mL,> 100 µg/mL,> 100 µg/mL,> 100 µg/mL,> 100 µg/mL,> 100 µg/mL,100 µg/mL,> 100 µg/mL,> 100 µg/mL,> 100 µg/mL,> 100 µg/mL,> 100 µg/mL,> 100 µg/mL,> 100 µg/mL,> 100 µg/mL,–,–
COc1ccc2cc1Oc1cc(ccc1OC)CCC(NCc1ccccc1)CCCC2 (stereo not drawn),12.5 to 50 µg/mL,–,–,–,–,–,–,–,–,–,–,–,–,–,–,–,–,–
COc1ccc2cc1Oc1cc(ccc1OC)CCC(NCc1ccc(C(F)(F)F)cc1)CCCC2 (stereo not drawn),25 µg/mL,12.5 µg/mL,> 100 µg/mL,> 100 µg/mL,12.5 µg/mL,50 µg/mL,> 100 µg/mL,12.5 µg/mL,> 100 µg/mL,> 100 µg/mL,6.25 µg/mL,> 100 µg/mL,> 100 µg/mL,> 100 µg/mL,> 100 µg/mL,> 100 µg/mL,–,–
COc1ccc2cc1Oc1cc(ccc1OC)CCC(N(CCO)CCO)CCCC2 (stereo not drawn),> 100 µg/mL,> 100 µg/mL,> 100 µg/mL,> 100 µg/mL,> 100 µg/mL,> 100 µg/mL,> 100 µg/mL,> 100 µg/mL,> 100 µg/mL,> 100 µg/mL,> 100 µg/mL,> 100 µg/mL,> 100 µg/mL,> 100 µg/mL,> 100 µg/mL,> 100 µg/mL,–,–
COc1ccc2cc1Oc1cc(ccc1OC)CCC(NCCc1ccccc1)CCCC2 (stereo not drawn),12.5 to 50 µg/mL,–,–,–,–,–,–,–,–,–,–,–,–,–,–,–,–,–
COc1ccc2cc1Oc1cc(ccc1OC)CCC(N[C@@H]1CCCc3ccccc31)CCCC2 (stereo in doubt; 25),> 100 µg/mL,–,–,> 100 µg/mL,–,–,–,–,–,> 100 µg/mL,–,> 100 µg/mL,> 100 µg/mL,> 100 µg/mL,> 100 µg/mL,> 100 µg/mL,100 µg/mL,MIC [8]: 6.25 µg/mL
COc1ccc2cc1Oc1cc(ccc1OC)CCC(N[C@@H]1CCCc3ccccc31)CCCC2 (stereo in doubt; 26),–,–,–,–,–,–,–,–,–,–,–,–,–,–,–,–,25 µg/mL,MIC [1]: 50 µg/mL; MIC [7]: 50 µg/mL; MIC [8]: 25 µg/mL; MIC [9]: >100 µg/mL
COc1ccc2cc1Oc1cc(ccc1OC)CCC(N[C@H]1CCCc3ccccc31)CCCC2 (stereo in doubt; 27),–,> 100 µg/mL,> 100 µg/mL,–,> 100 µg/mL,> 100 µg/mL,> 100 µg/mL,> 100 µg/mL,> 100 µg/mL,> 100 µg/mL,–,> 100 µg/mL,> 100 µg/mL,> 100 µg/mL,> 100 µg/mL,> 100 µg/mL,>100 µg/mL,–
COc1ccc2cc1Oc1cc(ccc1OC)CCC(N[C@H]1CCCc3ccccc31)CCCC2 (stereo in doubt; 28),–,–,–,–,–,–,–,–,–,–,–,–,–,–,–,–,25 µg/mL,MIC [2]: >100 µg/mL; MIC [3]: >100 µg/mL; MIC [4]: >100 µg/mL; MIC [5]: >100 µg/mL; MIC [6]: >100 µg/mL; MIC [7]: >100 µg/mL; MIC [8]: >100 µg/mL
O=C(N[C@H](CO)[C@H](O)c1ccc([N+](=O)[O-])cc1)C(Cl)Cl [CHLORAMPHENICOL],–,3.12 µg/mL,–,6.25 µg/mL,3.12 µg/mL,3.12 µg/mL,1.56 µg/mL,6.25 µg/mL,50 µg/mL,6.25 µg/mL,0.78 µg/mL,> 100 µg/mL,> 100 µg/mL,> 100 µg/mL,> 100 µg/mL,> 100 µg/mL,–,–
NNC(=O)c1ccncc1 [ISONIAZID],0.03 µg/mL,–,–,–,–,–,–,–,–,–,–,–,–,–,–,–,–,–
